Legend:
[1] = test system: giant foxtail; assay: Test B pre-/postemergence herbicide test; format: in vivo, Setaria faberi
Outline: (§1)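 Response was scored visually 13 to 15 days after treatment against untreated greenhouse controls, 0 meaning no effect and 100 complete control. Formulations (solvent mixture plus surfactant) went onto soil after planting, onto foliage of 1- to 4-leaf plants, and onto 2-leaf plants in a flooded paddy set including rice and barnyardgrass.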

[2] = test system: pigweed; assay: Test B pre-/postemergence herbicide test; format: in vivo, Amaranthus retroflexus
Outline: as §1

[3] = test system: Surinam grass; assay: Test C pre-/postemergence herbicide test; format: in vivo, Urochloa decumbens
Outline: (§2)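 Emerged plants at the 1- to 4-leaf stage (2–18 cm), or freshly planted seeds, received test chemicals in a non-phytotoxic solvent mixture with surfactant. Response was visually scored against controls after 12 to 14 days in the greenhouse, on a 0 (no effect) to 100 (complete control) scale.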

[4] = test system: large crabgrass; assay: Test C pre-/postemergence herbicide test; format: in vivo, Digitaria sanguinalis
Outline: as §2

[5] = test system: goosegrass; assay: Test C pre-/postemergence herbicide test; format: in vivo, Eleusine indica
Outline: as §2

[6] = test system: kochia; assay: Test C pre-/postemergence herbicide test; format: in vivo, Kochia scoparia
Outline: as §2

[7] = test system: lambsquarters; assay: Test C pre-/postemergence herbicide test; format: in vivo, Chenopodium album
Outline: as §2

[8] = test system: common ragweed; assay: Test C pre-/postemergence herbicide test; format: in vivo, Ambrosia elatior; parameters: key to Plant response rating, Ragweed: 0 = no effect, 100 = complete control
Outline: as §2

[9] = 125 g ai/ha, 0 is no effect, 100 is complete control, preemergence
[10] = 125 g ai/ha, visual rating, scale 0 (no effect) to 100 (complete control), postemergence
[11] = 500 g ai/ha, visual rating, 0 = no effect, 100 = complete control, preemergence
[12] = postemergence, 500 g ai/ha, scale 0 to 100, 0 is no effect, 100 is complete control
[13] = 62 g ai/ha, preemergence, scale 0 to 100
[14] = 250 g ai/ha, scale 0-100, preemergence
[15] = 500 g ai/ha, scale 0 to 100 (0 no effect, 100 complete control), visual, 12 to 14 days, preemergence
[16] = 125 g ai/ha, scale 0 (no effect) to 100 (complete control), visual, 12 to 14 days, preemergence
[17] = Postemergence, 500 g ai/ha, visual rating after 13 to 15 days, scale 0 (no effect) to 100 (complete control)
[18] = Preemergence, 500 g ai/ha, scale 0 to 100
[19] = preemergence, 125 g ai/ha, 0 to 100 scale, 0 is no effect, 100 is complete control
[20] = 31 g ai/ha, preemergence, scale 0 to 100
[21] = postemergence, 125 g ai/ha, scale 0 to 100
[22] = postemergence, 62 g ai/ha, scale 0 to 100
[23] = Postemergence, 125 g ai/ha, scale 0 to 100, 0 no effect, 100 complete control

## CCN(CC)C(=O)c1cccc(NC(=O)c2cc(C(C)(C)C)nn2C)n1 [Compound 314]
[1]; [9]
  Plant response rating (0 to 100 scale), Foxtail, Giant: 30
[1]; [10]
  Foxtail, Giant plant response rating: 20
[1]; [11]
  Plant response rating, Foxtail, Giant: 100
[1]; [12]
  Foxtail, Giant plant response rating: 20
[2]; [9]
  Plant response rating (0 to 100 scale), Pigweed: 90
[2]; [10]
  Pigweed plant response rating: 60
[2]; [11]
  Plant response rating, Pigweed: 100
[2]; [12]
  Pigweed plant response rating: 70
[3]; [13]
  Plant response rating, Surinam Grass: 0
[3]; [14]
  Plant response rating, Surinam Grass: 0
[3]; [15]
  Plant response rating, Surinam Grass: 20
[4]; [13]
  Plant response rating, Crabgrass, Large: 0
[4]; [16]
  Plant response rating, Crabgrass, Large: 0
[4]; [14]
  Plant response rating, Crabgrass, Large: 40
[4]; [15]
  Plant response rating, Crabgrass, Large: 60
[5]; [13]
  Plant response rating, Goosegrass: 0
[5]; [16]
  Plant response rating, Goosegrass: 40
[5]; [14]
  Plant response rating, Goosegrass: 65
[5]; [15]
  Plant response rating, Goosegrass: 85
[6]; [13]
  Plant response rating, Kochia: 0
[6]; [16]
  Plant response rating, Kochia: 0
[6]; [14]
  Plant response rating, Kochia: 30
[6]; [15]
  Plant response rating, Kochia: 70
[7]; [13]
  Plant response rating, Lambsquarters: 0
[7]; [16]
  Plant response rating, Lambsquarters: 10
[7]; [14]
  Plant response rating, Lambsquarters: 30
[7]; [15]
  Plant response rating, Lambsquarters: 85
[8]; [13]
  Plant response rating, Ragweed: 0
[8]; [14]
  Plant response rating, Ragweed: 40
[8]; [15]
  Plant response rating, Ragweed: 60

## CCNC(=O)c1cccc(NC(=O)c2cc(C(C)(C)C)nn2CCF)c1 [Compound 35]
[1]; Postemergence, 125 g ai/ha, scale 0 (no effect) to 100 (complete control)
  Foxtail, Giant plant response rating: 20
[1]; [17]
  Plant response rating, Foxtail, Giant: 20
[1]; [18]
  Foxtail, Giant plant response rating: 100
[1]; [19]
  Plant response rating, Foxtail, Giant: 80
[2]; [17]
  Plant response rating, Pigweed: 100
[2]; [18]
  Pigweed plant response rating: 100
[2]; [19]
  Plant response rating, Pigweed: 100
[3]; [20]
  Plant response rating, Surinam Grass: 0
[3]; 62 g ai/ha, preemergence
  Plant response rating (0 = no effect, 100 = complete control), Surinam Grass: 10
[3]; [16]
  Plant response rating, Surinam Grass: 20
[3]; [21]
  Plant response rating, Surinam Grass: 60
[3]; [22]
  Plant response rating, Surinam Grass: 40
[4]; [20]
  Plant response rating, Crabgrass, Large: 0
[4]; 62 g ai/ha, preemergence
  Plant response rating (0 = no effect, 100 = complete control), Crabgrass, Large: 10
[4]; [16]
  Plant response rating, Crabgrass, Large: 50
[4]; [23]
  Plant response rating, Crabgrass, Large: 40
[4]; [22]
  Plant response rating, Crabgrass, Large: 40
[5]; [20]
  Plant response rating, Goosegrass: 20
[5]; 62 g ai/ha, preemergence
  Plant response rating (0 = no effect, 100 = complete control), Goosegrass: 30
[5]; [16]
  Plant response rating, Goosegrass: 70
[5]; [23]
  Plant response rating, Goosegrass: 50
[5]; [22]
  Plant response rating, Goosegrass: 40
[6]; [20]
  Plant response rating, Kochia: 0
[6]; 62 g ai/ha, preemergence
  Plant response rating (0 = no effect, 100 = complete control), Kochia: 10
[6]; [16]
  Plant response rating, Kochia: 10
[6]; [23]
  Plant response rating, Kochia: 90
[6]; [22]
  Plant response rating, Kochia: 90
[7]; [20]
  Plant response rating, Lambsquarters: 0
[7]; 62 g ai/ha, preemergence
  Plant response rating (0 = no effect, 100 = complete control), Lambsquarters: 90
[7]; [16]
  Plant response rating, Lambsquarters: 100
[7]; [21]
  Plant response rating, Lambsquarters: 90
[7]; [22]
  Plant response rating, Lambsquarters: 90
[8]; [20]
  Plant response rating, Ragweed: 0
[8]; 62 g ai/ha, preemergence
  Plant response rating (0 = no effect, 100 = complete control), Ragweed: 10
[8]; [16]
  Plant response rating, Ragweed: 80
[8]; [21]
  Plant response rating, Ragweed: 50
[8]; [22]
  Plant response rating, Ragweed: 50

— patent US20060069132A1, “Azolecarboxamide herbicides” (priority 2004, published 2006)
